The subject of one series is Cbl-b. Nature of the series: siRNA knockdown efficiency by immunoblot in primary human NK cells. The class given is cell-based. The conditions noted are these: 48 h transduction, vs Scr siRNA. How it is done:
(§1) FIG. 8A Primary human NK cells were transduced with Cbl-b siRNA or a scrambled siRNA (Scr siRNA) for 48 h, directly followed by immunoblot analysis to determine the efficiency of siRNA (n=3 donors). […] FIG. 8B qRT-PCR was performed to quantify the level of perform mRNA (n=7 donors) in Cbl-b siRNA- and Scr siRNA-transduced primary human cells incubated without or with IL-15 (10 ng/ml) for 16 h. FIG. 8C The perform protein level in Cbl-b siRNA- and Scr siRNA-transduced primary human NK cells incubated 24 without or with IL-15 (10 ng/ml) for 24 h was measured by immunoblot analysis. The data are representative of four experiments and are summarized in the right panel. Scr, scrambled; *P<0.05, **P<0.01; ns, not significant. Data are presented as mean±SEM.
Transient transfection. Primary human NK cells were transfected with Accell siRNA by using the Accell delivery media from Dharmacon. Gene knockdown efficiency of siRNA was determined with immunoblotting analysis.
Immunoblotting. […] Densitometric analysis was performed to quantify intensity of gel bands with Image J (National Institutes of Health).
(§2) Both groups were next incubated without or with IL-15 and co-cultured with ^51Cr labeled MV4-11, Molm-13, or EOL-1 leukemia cell lines, followed by assessment of specific lysis measured after 4 h of co-culture.
For orientation: A western blot detects proteins with antibodies after separation by electrophoresis.

For a further series, the system named is granzyme B. The series can be described thus: Granzyme B (GZMB) mRNA by qRT-PCR in siRNA-transduced NK cells. The class given is cell-based, human. The conditions noted are these: without or with IL-15 (10 ng/ml) 16 h, vs Scr siRNA. How it is done: FIGS. 3A-3E depict the results of a study showing that downregulation of Cbl-b enhances the cytotoxicity of primary human NK cells. (FIGS. 3A and 3B) Primary human NK cells transduced with Cbl-b siRNA or Scr siRNA for 24 h were stimulated without (FIG. 3A) or with (FIG. 3B) a low concentration of IL-15 (2 ng/ml) for 16 h, then co-cultured with ^51Cr labeled Molm-13, MV4-11 or EOL-1 leukemia cell lines for 4 h, followed by quantification of specific tumor cell lysis. Each experiment was repeated with 6 different normal donors. (FIG. 3C) qRT-PCR was performed to quantify the granzyme B (GZMB) mRNA levels (n=8 donors) in siRNA- and Scr siRNA-transduced primary human NK cells incubated without or with IL-15 (10 ng/ml) for 16 h. (FIG. 3D) The concentration of the granzyme B protein in the supernatants of Cbl-b siRNA- and Scr siRNA-transduced primary human NK cells incubated without (688.1 pg/ml vs 525.4 pg/ml; P=0.0232) or with IL-15 (10 ng/ml) for 24 h (8789 pg/ml vs 3397 pg/ml; P=0.0232) was measured by ELISA (n=8 donors). (FIG. 3E) The level of granzyme B protein in Cbl-b siRNA- and Scr siRNA-transduced primary human NK cells incubated without or with IL-15 (10 ng/ml) for 24 h was measured by immunoblot analysis. The data are representative of three experiments. Scr-scrambled; *P<0.05, **P<0.01, ***P<0.001, ****P<0.0001 by One-way or Two-way ANOVA; ns, not significant. […]

The subject of another series is perform. Nature of the series: Perforin protein by immunoblot in siRNA-transduced NK cells. The class given is cell-based, human. The conditions noted are these: with IL-15 (10 ng/ml) 24 h, vs Scr siRNA. How it is done: as §1
Immunoblotting. Cells were harvested and suspended in RIPA lysis buffer (Thermo Fisher Scientific) on ice for 20 minutes. Equal amount of protein was resolved by 5-15% Criterion TGX gel (Bio-Rad) and then transferred onto a Nitrocellulose (NC) or PVDF membrane (Thermo Fisher Scientific). […] Densitometric analysis was performed to quantify intensity of gel bands with Image J (National Institutes of Health).
as §2

In a further series the test system is IFN-γ. Nature of the series: IFN-γ in supernatants by ELISA. The format is cell-based, human. On the procedure:
FIGS. 4A-4D depict the results of a study showing that downregulation of Cbl-b increases IFN-γ secretion in IL-15-activated primary human NK cells. (FIG. 4A) RNAseq was conducted using primary human NK cells transduced with either Cbl-b siRNA or Scr siRNA without or with incubation in IL-15 (10 ng/ml) for 16 h (4 donors for each group). […] (FIG. 4B) qRT-PCR was performed to quantify the mRNA levels of IFN-γ (n=6 donors) after IL-15 (10 ng/ml) 6 h stimulation. (FIG. 4C) The percentage of intracellular IFN-γ+ cells in un-transduced NK cells or those transduced with Cbl-b siRNA or Scr siRNA, each activated with IL-15 (10 ng/ml) for 24 h (11.5% vs 4.338%; P=0.0008; n=5 donors). (FIG. 4D) Supernatants were collected after IL-15 (10 ng/ml) for 24 h and IFN-γ concentrations measured by ELISA (18115 pg/ml vs 882.5 pg/ml; P=0.0099; n=7 donors). Scr-scrambled; *P<0.05, **P<0.01, ***P<0.001 by Student's two-tailed paired t-test or One-way ANOVA; ns, not significant. Data presented as mean±SEM.
ELISA. Primary NK cells were plated in an equivalent number of 100,000 cells/well in a 96-well plate in RPMI and supplemented with 10% FBS. Cells were treated with recombinant human IL-15 (10 ng/ml) for 24 h, and cell-free culture supernatant was collected and frozen at −80° C. for later use. IFN-γ concentration was measured by ELISA using anti-IFN-γ antibody from Thermo Fisher Scientific. Granzyme B concentration was measured by ELISA kit purchased from R&D.
To further explore how Cbl-b regulates the functions of primary human NK cells, we performed RNA-seq analyses using enriched primary NK cells from healthy donors transduced with Cbl-b siRNA or Scr siRNA without or with IL-15 treatment for 16 h (n=4 in each group). […] The intracellular results were supported by assessment IFN-γ secretion into the supernatant, in that IL-15-activated primary human NK cells transduced with Cbl-b siRNA expressed 10-fold higher levels of IFN-γ compared to NK cells transduced with Scr siRNA (FIG. 4D).

For the substance “Cbl-b siRNA: Cbl-b-specific Accell siRNA (Dharmacon), SEQ ID NO:1, CCUUCAUGUUCAGAUGGUU (Accell modified siRNA, pattern not given here)”, the “expression of Cbl-b after siRNA transduction” value with Cbl-b is recorded as “significant decrease”. In addition, the “Granzyme B mRNA” value in the series on granzyme B is “significantly increased”. Moreover, the “total protein level of perform” value in the series with perform is “significantly increased”. Further, the “IFN-γ concentration in supernatants” value in the series with IFN-γ (IL-15 (10 ng/ml) 24 h, n=7 donors) worked out at 18115 pg/mL. For the same substance, the “secreted IFN-γ level relative to Scr siRNA” value with IFN-γ (IL-15-activated) is on record as 10 fold.

The record behind these values is US20240299542A1, “NATURAL KILLER CELLS ENGINEERED TO REDUCE OR ELIMINATE CBL-B AND USES THEREOF” (City of Hope, priority 2021, published 2024).
